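Five compound concentrations were applied to cells in 96-well plates for 48 hours; endpoints were derived by simple linear interpolation of the resulting dose-response curve. At the GI50, growth is halved. TGI: concentration producing complete growth inhibition.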
Assays:
Assay in all cases: NCI anticancer screen, dose series, 48 h
CCRF-CEM leukemia = tested on: CCRF-CEM leukemia
A498 renal = tested on: A498 renal
MCF7 breast = tested on: MCF7 breast
T-47D breast = tested on: T-47D breast
MALME-3M melanoma = tested on: MALME-3M melanoma
IGROV1 ovarian = tested on: IGROV1 ovarian
SF-268 CNS = tested on: SF-268 CNS
NCI-H23 lung = tested on: NCI-H23 lung
SK-OV-3 ovarian = tested on: SK-OV-3 ovarian
NCI-H226 lung = tested on: NCI-H226 lung
LOX IMVI melanoma = tested on: LOX IMVI melanoma
SR leukemia = tested on: SR leukemia
U251 CNS = tested on: U251 CNS
HCT-116 colon = tested on: HCT-116 colon
SK-MEL-28 melanoma = tested on: SK-MEL-28 melanoma
SNB-19 CNS = tested on: SNB-19 CNS
HOP-62 NSCLC = tested on: HOP-62 NSCLC
BT-549 breast = tested on: BT-549 breast
OVCAR-5 ovarian = tested on: OVCAR-5 ovarian
COLO 205 colon = tested on: COLO 205 colon
NCI/ADR-RES ovarian = tested on: NCI/ADR-RES ovarian
MDA-MB-231 breast = tested on: MDA-MB-231 breast
OVCAR-3 ovarian = tested on: OVCAR-3 ovarian
ACHN renal = tested on: ACHN renal
SK-MEL-2 melanoma = tested on: SK-MEL-2 melanoma
SK-MEL-5 melanoma = tested on: SK-MEL-5 melanoma
CAKI-1 renal = tested on: CAKI-1 renal
NCI-H460 lung = tested on: NCI-H460 lung
MDA-MB-468 breast = tested on: MDA-MB-468 breast
RXF 393 renal = tested on: RXF 393 renal
A549 NSCLC = tested on: A549 NSCLC
HOP-92 NSCLC = tested on: HOP-92 NSCLC
SF-295 CNS = tested on: SF-295 CNS
HCT-15 colon = tested on: HCT-15 colon
MDA-MB-435 = tested on: MDA-MB-435
OVCAR-8 ovarian = tested on: OVCAR-8 ovarian
SW-620 colon = tested on: SW-620 colon
KM12 colon = tested on: KM12 colon
K-562 leukemia = tested on: K-562 leukemia
DU-145 prostate = tested on: DU-145 prostate
UACC-62 melanoma = tested on: UACC-62 melanoma
M14 melanoma = tested on: M14 melanoma
SF-539 CNS = tested on: SF-539 CNS
UACC-257 melanoma = tested on: UACC-257 melanoma
RPMI-8226 leukemia = tested on: RPMI-8226 leukemia
SNB-75 CNS = tested on: SNB-75 CNS
UO-31 renal = tested on: UO-31 renal
HCC-2998 colon = tested on: HCC-2998 colon
HS 578T breast = tested on: HS 578T breast
OVCAR-4 ovarian = tested on: OVCAR-4 ovarian
MOLT-4 leukemia = tested on: MOLT-4 leukemia
HL-60(TB) leukemia = tested on: HL-60(TB) leukemia
786-0 renal = tested on: 786-0 renal
SN12C renal = tested on: SN12C renal
PC-3 prostate = tested on: PC-3 prostate
EKVX NSCLC = tested on: EKVX NSCLC
HT29 colon = tested on: HT29 colon
TK-10 renal = tested on: TK-10 renal

SMILES: FC(F)(F)c1cc2c(Cl)ncnc2n1CCN1CCCCC1
- GI50 (CCRF-CEM leukemia): 11 µM
- TGI (CCRF-CEM leukemia): > 100 µM
- GI50 (A498 renal): > 100 µM
- TGI (A498 renal): > 100 µM
- GI50 (MCF7 breast): 19.6 µM
- TGI (MCF7 breast): 76.5 µM
- GI50 (T-47D breast): 21.9 µM
- TGI (T-47D breast): > 100 µM
- GI50 (MALME-3M melanoma): 19 µM
- TGI (MALME-3M melanoma): 55.4 µM
- GI50 (IGROV1 ovarian): 2.98 µM
- TGI (IGROV1 ovarian): 10.3 µM
- GI50 (SF-268 CNS): 16 µM
- TGI (SF-268 CNS): 38.6 µM
- GI50 (NCI-H23 lung): 13.9 µM
- TGI (NCI-H23 lung): 39.3 µM
- GI50 (SK-OV-3 ovarian): 52.3 µM
- TGI (SK-OV-3 ovarian): > 100 µM
- GI50 (NCI-H226 lung): 60.6 µM
- TGI (NCI-H226 lung): > 100 µM
- GI50 (LOX IMVI melanoma): 1.69 µM
- TGI (LOX IMVI melanoma): 3.11 µM
- GI50 (SR leukemia): 3.28 µM
- TGI (SR leukemia): 26.1 µM
- GI50 (U251 CNS): 14.1 µM
- TGI (U251 CNS): 34.9 µM
- GI50 (HCT-116 colon): 4.86 µM
- TGI (HCT-116 colon): 20.3 µM
- GI50 (SK-MEL-28 melanoma): 16 µM
- TGI (SK-MEL-28 melanoma): 37.7 µM
- GI50 (SNB-19 CNS): 15.2 µM
- TGI (SNB-19 CNS): 31.3 µM
- GI50 (HOP-62 NSCLC): 38.1 µM
- TGI (HOP-62 NSCLC): > 100 µM
- GI50 (BT-549 breast): 15 µM
- TGI (BT-549 breast): 29.8 µM
- GI50 (OVCAR-5 ovarian): > 100 µM
- TGI (OVCAR-5 ovarian): > 100 µM
- GI50 (COLO 205 colon): 52.7 µM
- TGI (COLO 205 colon): > 100 µM
- GI50 (NCI/ADR-RES ovarian): 24 µM
- TGI (NCI/ADR-RES ovarian): 64.8 µM
- GI50 (MDA-MB-231 breast): 5.47 µM
- TGI (MDA-MB-231 breast): 19.7 µM
- GI50 (OVCAR-3 ovarian): 17.6 µM
- TGI (OVCAR-3 ovarian): 35.5 µM
- GI50 (ACHN renal): 6.46 µM
- TGI (ACHN renal): > 100 µM
- GI50 (SK-MEL-2 melanoma): 16.5 µM
- TGI (SK-MEL-2 melanoma): 32.9 µM
- GI50 (SK-MEL-5 melanoma): 14.9 µM
- TGI (SK-MEL-5 melanoma): 31.1 µM
- GI50 (CAKI-1 renal): 25.3 µM
- TGI (CAKI-1 renal): > 100 µM
- GI50 (NCI-H460 lung): 18.3 µM
- TGI (NCI-H460 lung): 50.6 µM
- GI50 (MDA-MB-468 breast): 3.02 µM
- TGI (MDA-MB-468 breast): 9.43 µM
- GI50 (RXF 393 renal): 15.6 µM
- TGI (RXF 393 renal): 40.9 µM
- GI50 (A549 NSCLC): 80.1 µM
- TGI (A549 NSCLC): > 100 µM
- GI50 (HOP-92 NSCLC): 19.7 µM
- TGI (HOP-92 NSCLC): 53.8 µM
- GI50 (SF-295 CNS): 22.6 µM
- TGI (SF-295 CNS): 86.3 µM
- GI50 (HCT-15 colon): 3.16 µM
- TGI (HCT-15 colon): 12.8 µM
- GI50 (MDA-MB-435): 13.1 µM
- TGI (MDA-MB-435): 29.9 µM
- GI50 (OVCAR-8 ovarian): 12.5 µM
- TGI (OVCAR-8 ovarian): 32.8 µM
- GI50 (SW-620 colon): 11.2 µM
- TGI (SW-620 colon): 28.7 µM
- GI50 (KM12 colon): 29.8 µM
- TGI (KM12 colon): > 100 µM
- GI50 (K-562 leukemia): 2.91 µM
- TGI (K-562 leukemia): > 100 µM
- GI50 (DU-145 prostate): 30.5 µM
- TGI (DU-145 prostate): > 100 µM
- GI50 (UACC-62 melanoma): 12.2 µM
- TGI (UACC-62 melanoma): 30.5 µM
- GI50 (M14 melanoma): 12.8 µM
- TGI (M14 melanoma): 33.4 µM
- GI50 (SF-539 CNS): 17.1 µM
- TGI (SF-539 CNS): 36.2 µM
- GI50 (UACC-257 melanoma): 11.8 µM
- TGI (UACC-257 melanoma): 30.4 µM
- GI50 (RPMI-8226 leukemia): 31.5 µM
- TGI (RPMI-8226 leukemia): > 100 µM
- GI50 (SNB-75 CNS): 10.5 µM
- TGI (SNB-75 CNS): 22.5 µM
- GI50 (UO-31 renal): 1.74 µM
- TGI (UO-31 renal): 3.58 µM
- GI50 (HCC-2998 colon): 4.11 µM
- TGI (HCC-2998 colon): 14.3 µM
- GI50 (HS 578T breast): 16.4 µM
- TGI (HS 578T breast): 60 µM
- GI50 (OVCAR-4 ovarian): 28.5 µM
- TGI (OVCAR-4 ovarian): > 100 µM
- GI50 (MOLT-4 leukemia): 10.5 µM
- TGI (MOLT-4 leukemia): 55.2 µM
- GI50 (HL-60(TB) leukemia): 2.07 µM
- TGI (HL-60(TB) leukemia): 7.47 µM
- GI50 (786-0 renal): 39.8 µM
- TGI (786-0 renal): > 100 µM
- GI50 (SN12C renal): 19.4 µM
- TGI (SN12C renal): > 100 µM
- GI50 (PC-3 prostate): 15.2 µM
- TGI (PC-3 prostate): 47.9 µM
- GI50 (EKVX NSCLC): 16.3 µM
- TGI (EKVX NSCLC): 85.5 µM
- GI50 (HT29 colon): 21.1 µM
- TGI (HT29 colon): 81.3 µM
- GI50 (TK-10 renal): > 100 µM
- TGI (TK-10 renal): > 100 µM

— PubChem BioAssay (NCI)
